# Earlier results in patent US20230405034A1, “FORMULATION OF IVERMECTIN IN SOFT GELATIN CAPSULES” (PROCAPS S.A., priority 2020, published 2023).
# What was measured:
# SARS-CoV-2 = SARS-CoV-2 in vitro, after 48 hours; cited from earlier work
# [1] = cited from earlier work
# [2] = tested on: pseudorabies DNA virus (PRV); details: ivermectin treatment; cited from earlier work
# [3] = in vivo; cited from earlier work
Substance,reduction in viral RNA (SARS-CoV-2),solubility in water [1],survival in PRV-infected mice [2],plasma half-life [3]
Ivermectin,"approximately 5,000 fold",practically insoluble in water,increases survival,
medium chain triglycerides,,,,approximately 17 minutes
